Results from PubChem BioAssay AID652057 (Broad Institute, 2013).
Values joined by “and” are separate entries in the source; they are usually repeats but may differ in a detail not shown here. Equal values may be shown once.

Tested on: HeLa-JRFL Env/CEM21 cell fusion, luciferase
Experiment: blockers of HIV-1 envelope-mediated cell-cell fusion – cherry-pick, dose response (AID 652057)

Row | SMILES | AC50
1 | C[C@H](CO)N1C[C@H](C)[C@H](CN(C)S(=O)(=O)c2ccccc2)Oc2ncc(/C=C/c3ccccc3)cc2C1=O | 9.21 µM and 1.6 µM
2 | O=C(C[C@H]1C[C@H]2c3cc(NC(=O)c4ccc5c(c4)OCO5)ccc3O[C@H]2[C@H](CO)O1)NCc1ccc(Oc2ccccc2)cc1 | 35.1 µM
